# Laboratory results reported in patent US10881110B2, “Herbicidal compositions comprising isoxazolo[5,4-b]pyridines” (BASF SE, priority 2014, dated 2021).
# How the values were obtained:
# Assay in all cases: greenhouse post-emergence herbicidal test
# ALOMY = type: in vivo, Alopecurus myosuroides; design: key to herbicidal activity against ALOMY found: rating on a scale from 0 to 100; conditions: post emergence; application rate a.i.: I.1 250 g/ha, B.193 15 g/ha, alone or as mixture (composition 1.193)
# Method in brief: (§1)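 Visual rating at 20 days after treatment used a 0–100 scale, where 100 meant no emergence or complete destruction of above-ground parts. Seedlings of 1–15 cm, grown at species-dependent 10-25° C or 20-35° C, received water-based spray liquor containing the formulated components.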
# DIGSA = type: in vivo, Digitaria sanguinalis
# Experimental: (§2) The culture containers used were plastic pots containing medium loamy sand with approximately 4.6% of humus and 69.9% sand as substrate. The seeds of the test plants were sown separately for each species.
# (§3) For the post-emergence treatment, the test plants were grown to a plant height of from 1 to 15 cm, depending on the plant habit, and only then treated with the active compounds which had been suspended or emulsified in water. To this end, the test plants were either sown directly, and grown in the same containers, or they were first grown separately as seedlings and transplanted into the test containers a few days prior to treatment.
# (§4) Depending on the species, the plants were kept at 10-25° C. and 20-35° C., respectively.
# (§5) The test period extended over 1 to 3 weeks. During this time, the plants were tended and their response to the individual treatments was evaluated 20 days after treatment except mentioned otherwise.
# (§6) Evaluation was carried out using a scale from 0 to 100. 100 means no emergence of the plants, or complete destruction of at least the above-ground parts, and 0 means no damage or normal course of growth.
# (§7) The respective stated components A and B, and, if appropriate, C, were formulated as a 10% by weight strength emulsion concentrate and, with addition of the amount of solvent system, introduced into the spray liquor used for applying the active compound. In the examples, the solvent used was water.
# (§8) In the examples below, using the method of S. R. Colby (1967) “Calculating synergistic and antagonistic responses of herbicide combinations”, Weeds 15, p. 22 ff., the value E, which is expected if the activity of the individual active compounds is only additive, was calculated. E=X+Y−(X·Y/100)
# GERDI = type: in vivo, Geranium dissectum; design: key to herbicidal activity against GERDI found: rating on a scale from 0 to 100; conditions: post emergence
# Method in brief: as §1
# ECHCG = type: in vivo, Echinochloa crus-galli; design: key to herbicidal activity against ECHCG found / herbicidal activity against ECHCH found: scale 0 to 100; conditions: post emergence; application rate a.i.: I.1 250 g/ha, B.193 15 g/ha, alone or as mixture (composition 1.193)
# Method in brief: as §1
# POLPE = type: in vivo, Persicaria maculosa; design: key: scale 0 to 100
# Experimental: as §2, §3, §4, §5, §6, §7, §8
# MATCH = type: in vivo, Matricaria recutita; design: key to herbicidal activity against MATCH found: rating on a scale from 0 to 100; conditions: post emergence
# Method in brief: as §1
# AMBEL = type: in vivo, Ambrosia artemisiifolia; design: key: rating on a scale from 0 to 100
# Experimental: as §2, §3, §4, §5, §6, §7, §8
# AMARE = type: in vivo, Amaranthus retroflexus
# Experimental: as §2, §3, §4, §5, §6, §7, §8
# CHEAL = type: in vivo, Chenopodium album
# Experimental: as §2, §3, §4, §5, §6, §7, §8
# CONAR = type: in vivo, Convolvulus arvensis; design: key: rating on a scale from 0 to 100
# Experimental: as §2, §3, §4, §5, §6, §7, §8
# LOLMU = type: in vivo, Lolium multiflorum; conditions: a.i. g/ha: I.1 62.5, B.77 75, 20 days after treatment
# Experimental: as §2, §3, §4, §5, §6, §7, §8
# GALAP = type: in vivo, Galium aparine; design: key to herbicidal activity against GALAP found: rating on a scale from 0 to 100; conditions: post emergence
# Method in brief: (§9)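 Post-emergence greenhouse test: plants in loamy sand, sprayed at 1–15 cm height with aqueous spray liquor from 10% emulsion concentrates, kept at 10-25 °C or 20-35 °C by species. Damage scored 0–100 (100 = complete destruction), usually 20 days after treatment. Expected additive effect E from Colby: E=X+Y−(X·Y/100).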
# ERICA = type: in vivo, Conyza canadensis; design: key to herbicidal activity against ERICA found: rating on a scale from 0 to 100; conditions: post emergence
# Method in brief: as §1
# SASKR = type: in vivo, Salsola kali; design: key: scale 0 to 100
# Experimental: as §2, §3, §4, §5, §6, §7, §8
# PAPRH = type: in vivo, Papaver rhoeas; design: key: rating on a scale from 0 to 100
# Method in brief: as §1
# VIOAR = type: in vivo, Viola arvensis; design: key to herbicidal activity against VIOAR found / herbicidal activity against VIOLA found: rating on a scale from 0 to 100; conditions: post emergence
# Method in brief: as §9
# POLCO = type: in vivo, Polygonum convolvulus; design: key to herbicidal activity against POLCO found: rating on a scale from 0 to 100; conditions: post emergence
# Method in brief: as §9
# POLAV = type: in vivo, Polygonum aviculare; design: key: rating on a scale from 0 to 100
# Experimental: as §2, §3, §4, §5, §6, §7, §8
# LAMAM = type: in vivo, Lamium amplexicaule; design: key: scale 0 to 100
# Experimental: as §2, §3, §4, §5, §6, §7, §8
# STEME = type: in vivo, Stellaria media; design: key: scale 0 to 100
# Experimental: as §2, §3, §4, §5, §6, §7, §8
# ABUTH = type: in vivo, Abutilon theophrast; design: key to herbicidal activity against ABUTH found: rating on a scale from 0 to 100; conditions: post emergence; 200 g/ha a.i.
# Method in brief: as §1
# IPOHE = type: in vivo, Ipomoea hederacea; design: key to herbicidal activity against IPOHE found: rating on a scale from 0 to 100; conditions: post emergence, 20 days after treatment
# Method in brief: as §9
# [1] = application rate a.i.: I.1 250 g/ha, B.193 15 g/ha, alone or as mixture (composition 1.193)
# [2] = a.i. g/ha: I.1 31.25, B.76 225, 20 days after treatment
# [3] = a.i. g/ha: I.1 62.5, B.76 225, 20 days after treatment
# [4] = a.i. g/ha: I.1 62.5, B.77 75, 20 days after treatment
# [5] = a.i. g/ha: I.1 62.5, B.80 250, 20 days after treatment
# [6] = a.i. g/ha: I.1 15.6, B.190 62.5, 20 days after treatment
# [7] = a.i. g/ha: I.1 31.25, B.190 62.5, 20 days after treatment
# [8] = a.i. g/ha: I.1 31.25, bentazon Na 125, 20 days after treatment
smiles,measurement,setting,value
Cc1ccccc1CO[C@H]1C[C@]2(C(C)C)CC[C@@]1(C)O2 (racemic) [B.193],herbicidal activity against ALOMY found,ALOMY,0
same,herbicidal activity against DIGSA found,DIGSA; [1],20
same,herbicidal activity against GERDI found,GERDI; [1],40
same,herbicidal activity against ECHCG found,ECHCG,40
"COc1cc(OC)nc(NC(=O)NS(=O)(=O)c2ncccc2C(=O)N(C)C)n1 [B.51, nicosulfuron]",herbicidal activity against POLPE found,POLPE; 20 g/ha a.i.,95
same,pest or weed control at 20 g/ha,"MATCH; Matricaria chamomilla, post-emergence, 480 h, 20 g/ha a.i., read-out: herbicidal activity against MATCH found",90%
same,herbicidal activity against AMBEL found,AMBEL; 20 g/ha a.i.,80
"CC(C)c1ccc(NC(=O)N(C)C)cc1 [B.76, isoproturon]",herbicidal activity against DIGSA found,DIGSA; [2],30%
same,herbicidal activity against DIGSA found,DIGSA; [3],30%
same,herbicidal activity against AMARE found,AMARE; [2],50%
same,herbicidal activity against CHEAL found,CHEAL; [2],65%
same,herbicidal activity against CHEAL found,CHEAL; [3],65%
same,herbicidal activity against CONAR found,CONAR; [3],65%
"CON(C)C(=O)Nc1ccc(Cl)c(Cl)c1 [B.77, linuron]",herbicidal activity against LOLMU found,LOLMU,35%
same,herbicidal activity against GALAP found,GALAP; [4],40%
same,herbicidal activity against CONAR found,CONAR; [4],50%
"CCC(=O)Nc1ccc(Cl)c(Cl)c1 [B.80, propanil]",herbicidal activity against ERICA found,ERICA; [5],65%
same,herbicidal activity against DIGSA found,DIGSA; [5],40%
same,herbicidal activity against CONAR found,CONAR; [5],20%
"CS(=O)(=O)c1ccc(C(=O)C2C(=O)CCCC2=O)c([N+](=O)[O-])c1 [B.101, mesotrione]",herbicidal activity against SASKR found,SASKR; 9.375 g/ha a.i.,75
same,pest or weed control at 9.375 g/ha,"ERICA; Erigeron canadensis, post-emergence, 480 h, 9.375 g/ha a.i., read-out: herbicidal activity against ERICA found",80%
same,herbicidal activity against PAPRH found,PAPRH; 9.375 g/ha a.i.,35
same,pest or weed control at 9.375 g/ha,"GERDI; Geranium dissectum, post-emergence, 480 h, 9.375 g/ha a.i., read-out: herbicidal activity against GERDI found",0%
same,pest or weed control at 9.375 g/ha,"MATCH; Matricaria chamomilla, post-emergence, 480 h, 9.375 g/ha a.i., read-out: herbicidal activity against MATCH found",75%
same,herbicidal activity against AMBEL found,AMBEL; 9.375 g/ha a.i.,80
"Cc1cc(Cl)ccc1OCC(=O)O [B.164, MCPA]",herbicidal activity against POLPE found,POLPE; 200 g/ha a.i.,65
same,herbicidal activity against POLPE found,POLPE; 400 g/ha a.i.,80
same,herbicidal activity against VIOAR found,VIOAR; 100 g/ha a.i.,60
same,herbicidal activity against VIOAR found,VIOAR; 200 g/ha a.i.,65
same,herbicidal activity against VIOAR found,VIOAR; 400 g/ha a.i.,70
same,herbicidal activity against GALAP found,GALAP; 400 g/ha a.i.,30
same,herbicidal activity against POLCO found,POLCO; 200 g/ha a.i.,50
same,herbicidal activity against POLCO found,POLCO; 400 g/ha a.i.,50
same,herbicidal activity against PAPRH found,PAPRH; 100 g/ha a.i.,60
same,herbicidal activity against PAPRH found,PAPRH; 200 g/ha a.i.,65
same,herbicidal activity against CONAR found,CONAR; 200 g/ha a.i.,90
same,herbicidal activity against CONAR found,CONAR; 400 g/ha a.i.,90
same,herbicidal activity against GERDI found,GERDI; 100 g/ha a.i.,65
same,herbicidal activity against POLAV found,POLAV; 100 g/ha a.i.,70
same,herbicidal activity against POLAV found,POLAV; 200 g/ha a.i.,85
same,herbicidal activity against POLAV found,POLAV; 400 g/ha a.i.,85
same,"herbicidal activity against LAMAM, found",LAMAM; 200 g/ha a.i.,65
same,"herbicidal activity against LAMAM, found",LAMAM; 400 g/ha a.i.,70
same,herbicidal activity against STEME found,STEME; 100 g/ha a.i.,50
same,herbicidal activity against STEME found,STEME; 200 g/ha a.i.,60
same,herbicidal activity against STEME found,STEME; 400 g/ha a.i.,80
same,herbicidal activity against MATCH found,MATCH; 400 g/ha a.i.,50
same,herbicidal activity against ABUTH found,ABUTH,80
"Cc1ccc(NC(=O)N(C)C)cc1Cl [B.190, chlorotoluron]",herbicidal activity against AMARE found,AMARE; [6],40%
same,herbicidal activity against AMARE found,AMARE; [7],40%
same,herbicidal activity against POLCO found,POLCO; [6],50%
same,herbicidal activity against POLCO found,POLCO; [7],50%
same,herbicidal activity against IPOHE found,"IPOHE; a.i. g/ha: I.1 15.6, B.190 62.5",60%
same,herbicidal activity against IPOHE found,"IPOHE; a.i. g/ha: I.1 31.25, B.190 62.5",60%
same,herbicidal activity against CHEAL found,CHEAL; [6],95%
same,herbicidal activity against GERDI found,GERDI; [7],60%
same,herbicidal activity against POLAV found,POLAV; [6],50%
same,herbicidal activity against STEME found,STEME; [7],70%
"CC(C)N1C(=O)c2ccccc2[N-]S1(=O)=O.[Na+] [bentazon Na, bentazon-sodium]",herbicidal activity against AMARE found,AMARE; [8],75%
same,herbicidal activity against POLCO found,POLCO; [8],40%
same,herbicidal activity against POLAV found,POLAV; [8],40%
Cc1nn(C)c(O)c1C(=O)c1ccc(C(F)(F)F)cc1S(C)(=O)=O [pyrasulfatole],herbicidal activity against SASKAR found,SASKR; 10 g/ha a.i.,90
same,herbicidal activity against VIOAR found,VIOAR; 10 g/ha a.i.,0
same,herbicidal activity against VIOAR found,VIOAR; 20 g/ha a.i.,40
same,herbicidal activity against VIOAR found,VIOAR; 40 g/ha a.i.,60
same,herbicidal activity against PAPRH found,PAPRH; 10 g/ha a.i.,50
same,herbicidal activity against PAPRH found,PAPRH; 20 g/ha a.i.,65
same,herbicidal activity against PAPRH found,PAPRH; 40 g/ha a.i.,65
same,herbicidal activity against CONAR found,CONAR; 10 g/ha a.i.,60
same,herbicidal activity against CONAR found,CONAR; 20 g/ha a.i.,65
same,herbicidal activity against CONAR found,CONAR; 40 g/ha a.i.,85
same,herbicidal activity against GERDI found,GERDI; 40 g/ha a.i.,50
same,herbicidal activity against POLAV found,POLAV; 20 g/ha a.i.,70
same,herbicidal activity against MATCH found,MATCH; 10 g/ha a.i.,50
same,herbicidal activity against MATCH found,MATCH; 40 g/ha a.i.,50
